From patent US7235532B2, “Angiogenic agents and their uses” (Centre National de la Recherche Scientfique, priority 2000, dated 2007)

Experiments:
Sprague-Dawley rat = assay: vascular invasion in vivo of Matrigel placed under the skin
Text: In vivo, AcSDKP (SEQ ID NO: 1) induces, in a dose-dependent manner, the vascular invasion of Matrigel placed under the skin of the animal (Sprague-Dawley rat). In this experiment, AcSDKP (SEQ ID NO: 1) was mixed with the Matrigel before implantation. Seven days later, the animals were sacrificed and the Matrigel samples were taken and fixed in formol, and were the subject of a histological study. […] For the quantification, the vascular sections were counted on 10 consecutive fields (surface area =32 mm^2) from the richest zone.

[1] = tested on: chick embryo chorioallantoic membrane; assay: chick embryo chorioallantoic membrane (CAM) vascularization; assay type: in vivo
Procedure: FIGS. 2a, 2b and 2c: Effect of AcSDKP (SEQ ID NO: 1) and of analogues thereof on the vascularization of the chick embryo chorioallantoic membrane (CAM). FIG. 2A discloses SEQ ID NOS: 1 and 27, respectively, in order of appearance.
The following experiments were carried out on the chick embryo chorioallantoic membrane experimental model and the activity of AcSDKP (SEQ ID NO: 1) and of analogues thereof was tested on this model. […] The increase in the density of vascularization varies depending on the dose studied, with a maximum effect for AcSDKP (SEQ ID NO: 1) and AcSDKP-NH2 (SEQ ID NO: 27) at concentrations of between 10^−9 M and 10^−7 M (FIGS. 2a, 2b and 2c).

[2] = tested on: endothelial cells (EA.hy926); assay: formation of vascular tubes in Matrigel in vitro; assay type: cell-based, human; details: 6 hours exposure
Procedure: FIG. 3: Effect of AcSDKP (SEQ ID NO: 1) on the formation of vascular tubes, in vitro, by endothelial cells (EA.hy926) in Matrigel.
The maximum stimulations, corresponding to an increase of 60% and 58%, respectively, were observed after exposure of the cells to the tetrapeptide for 6 hours.

normal rats = assay: angiography of abdominal walls after injection into abdominal muscle; assay type: in vivo, rat
Procedure: In these experiments, AcSDKP (SEQ ID NO: 1) was injected into the abdominal muscle in normal rats (treatment twice a day for […]). […] It should be emphasized that this effect remains over time (observations made one month after the start of treatment).

Sprague-Dawley rats = assay: pedicled ventral skin flap model; assay type: in vivo, rat; details: 5 μg/kg/injection s.c., after surgery then 5 times at 12 hour intervals
Text: Given the ability of angiogenic factors to stimulate, in vivo, the formation of new vessels in lesioned regions which are characterized by a deficiency in vascularization, we studied the effectiveness of AcSDKP (SEQ ID NO: 1) in promoting tissue lesion repair, using a skin flap model. In fact, the distal necrosis of skin flaps generally results from rupturing of the vascular network and therefore from an insufficiency of arterial flow, which poses considerable problems in the fields of plastic and reconstructive surgery.
Pedicled ventral skin flaps (6×6 cm) (left inguinal pedicle) were made in the Sprague-Dawley rats.
AcSDKP (SEQ ID NO: 1) was administered at the dose of 5 μg/kg/ injection (250 μl/injection) immediately after the surgical intervention, and then again 5 times at 12 hour intervals. […] From a macroscopic point of view, the decrease in necrosis is accompanied by the increase in the density of the vascularization over the internal surface of the flaps.

[3] = tested on: HUVEC human endothelial cells; assay: adhesion of HUVEC to extracellular matrix components, preliminary experiments; assay type: cell-based; details: compared with marrow cell results
Text: It is clearly established that these interactions between endothelial cells and the extracellular matrix are determinant for the neovascularization and are involved at various steps of angiogenesis. Specifically, the extracellular matrix influences the proliferation and the migration of vascular endothelial cells, and also their ability to differentiate and to organize into capillaries in order to form new functional vessels suited to their tissue microenvironment.

[4] = tested on: endothelial cells originating from bovine brain capillaries (BBC); assay: growth of endothelial cells originating from bovine brain capillaries, in vitro; assay type: cell-based
Text: (§1) FIGS. 1a, 1b and 1c: AcSDKP (SEQ ID NO: 1) stimulates the growth of bovine (BBC) and human (HUVEC and EA.hy926) endothelial cells, in vitro.
(§2) The mitogenic effect of AcSDKP (SEQ ID NO: 1) manifests itself at concentrations ranging between 10^−6 and 10^−11 M, with a maximum for 10^−9 M.

[5] = tested on: immortalized HUVEC cell line (EA.hy926); assay: growth of immortalized HUVEC cell line, in vitro; assay type: cell-based, human
Text: as §1, §2

[6] = tested on: human umbilical cord vein endothelial cells (HUVEC); assay: growth of human umbilical cord vein endothelial cells, in vitro; assay type: cell-based
Text: as §1, §2

total marrow cells = assay: adhesion of marrow cells to components of the extracellular matrix, in vitro; assay type: cell-based; details: fibronectin, collagen IV and laminin
Text: The optimum concentration of AcSDKP (SEQ ID NO: 1) in this type of model is between 10^−6 and 10^−8 M.

**Q.** “FGFb: fibroblast growth factor used as comparison angiogenic factor” was tested. Which “Number of vessels (% increase compared to control)” value (Sprague-Dawley rat; 50 ng/ml, Exp. 2) did it give?
**A.** Its value is 297%.

**Q.** How did the “neovascularization of CAM” value [1] turn out when CH3CO-Ser-Asp-Lys-Pro-NH2 [AcSDKP-NH2] was run?
**A.** The value was “significantly induced neovascularization”.

**Q.** For “CH3CO-Ser-Asp-Lys-Pro-OH (Ac-SDKP-OH) [AcSDKP, tetrapeptide acetyl-Ser-Asp-Lys-Pro]”, which “increase of total surface area of the vascular network compared to control (maximum stimulation)” value ([2]; 10^−9 M) is on record?
**A.** The value was 60%.

**Q.** What about the “increase of total surface area of the vascular network compared to control (maximum stimulation)” value ([2]; 10^−11 M) of the same substance?
**A.** The value was 58%.

**Q.** And the “Number of vessels (% increase compared to control)” value (Sprague-Dawley rat; 10^−5 M, Exp. 1)?
**A.** Its value is 60%.

**Q.** And the “Number of vessels (% increase compared to control)” value (Sprague-Dawley rat; 10^−5 M, Exp. 2)?
**A.** Its value is 185%.

**Q.** And the “Number of vessels (% increase compared to control)” value (Sprague-Dawley rat; 10^−6 M, Exp. 2)?
**A.** The value was 121%.

**Q.** What about the “Number of vessels (% increase compared to control)” value (Sprague-Dawley rat; 10^−7 M, Exp. 1) of the same substance?
**A.** Its value is 294%.

**Q.** What about the “Number of vessels (% increase compared to control)” value (Sprague-Dawley rat; 10^−7 M, Exp. 2) of the same substance?
**A.** The value was 118%.

**Q.** What about the “Number of vessels (% increase compared to control)” value (Sprague-Dawley rat; 10^−7 M, Exp. 3) of the same substance?
**A.** The value was 139%.

**Q.** What about the “Number of vessels (% increase compared to control)” value (Sprague-Dawley rat; 10^−8 M, Exp. 2) of the same substance?
**A.** The value was 223%.

**Q.** And the “Number of vessels (% increase compared to control)” value (Sprague-Dawley rat; 10^−9 M, Exp. 1)?
**A.** Its value is 108%.

**Q.** And the “Number of vessels (% increase compared to control)” value (Sprague-Dawley rat; 10^−9 M, Exp. 2)?
**A.** The value was 61%.

**Q.** What about the “Number of vessels (% increase compared to control)” value (Sprague-Dawley rat; 10^−9 M, Exp. 3) of the same substance?
**A.** Its value is 197%.

**Q.** And the “vessels within the Matrigel compared to control Matrigel” value (Sprague-Dawley rat; mixed with Matrigel before implantation, 7 days)?
**A.** Its value is “much greater number of vessels”.

**Q.** And the “vascularization of abdominal walls (angiography)” value (normal rats; 5 μg/kg/injection into abdominal muscle, twice a day, sacrifice day 8)?
**A.** Its value is “more developed vascularization”.

**Q.** What about the “vascularization of abdominal walls (angiography)” value (normal rats; 50 μg/kg/injection into abdominal muscle) of the same substance?
**A.** Its value is “No significant modification of the vascularization”.

**Q.** What about the “increase in survival of the flaps compared to the controls” value (Sprague-Dawley rats) of the same substance?
**A.** The value was 10%.

**Q.** And the “neovascularization of CAM” value [1]?
**A.** The value was “significantly induced neovascularization”.

**Q.** And the “adhesion to extracellular matrix components” value [3]?
**A.** The value was “Comparable results”.

**Q.** What about the “concentration of maximum mitogenic effect” value (“concentration” for short) [4] of the same substance?
**A.** Its value is 10^−9 M.

**Q.** And the “growth of endothelial cells” value ([4]; in vitro)?
**A.** Its value is “significantly stimulates the growth”.

**Q.** What about the “concentration” value ([5]; EA.hy926) of the same substance?
**A.** The value was 10^−9 M.

**Q.** What about the “growth of endothelial cells” value ([5]; EA.hy926, in vitro) of the same substance?
**A.** The value was “significantly stimulates the growth”.

**Q.** What about the “concentration” value [6] of the same substance?
**A.** The value was 10^−9 M.

**Q.** And the “growth of endothelial cells” value ([6]; in vitro)?
**A.** The value was “significantly stimulates the growth”.

**Q.** And the “adhesion of marrow cells to extracellular matrix components” value (total marrow cells)?
**A.** Its value is “increases the adhesion”.
